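Where inhibition never reached the appropriate level, the endpoint shown equals the highest concentration tested. Otherwise, values were interpolated linearly from a five-concentration, 48-hour dose response in 96-well plates. GI50: concentration for 50% inhibition of growth.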 Active and inactive are the calls of the source. Rule as the data show it: active = GI50 up to about 1.1 µM and inactive = higher.
Key:
Assay in all cases: NCI tumour cell line growth inhibition, 48 h
A498 = test system: A498
A549 = test system: A549
ACHN = test system: ACHN
BT-549 = test system: BT-549
CAKI-1 = test system: CAKI-1
COLO 205 = test system: COLO 205
DU-145 = test system: DU-145
EKVX = test system: EKVX
HCC 2998 = test system: HCC 2998
HCT-116 = test system: HCT-116
HCT-15 = test system: HCT-15
HOP-62 = test system: HOP-62
HOP-92 = test system: HOP-92
HT-29 = test system: HT-29
Hs-578T = test system: Hs-578T
IGROV-1 = test system: IGROV-1
K562 = test system: K562
KM12 = test system: KM12
LOX IMVI = test system: LOX IMVI
M14 = test system: M14
MCF7 = test system: MCF7
MDA-MB-231 = test system: MDA-MB-231
MDA-MB-435 = test system: MDA-MB-435
MDA-N = test system: MDA-N
MOLT-4 = test system: MOLT-4
Malme-3M = test system: Malme-3M
NCI-H226 = test system: NCI-H226
NCI-H23 = test system: NCI-H23
NCI/ADR-RES = test system: NCI/ADR-RES
OVCAR-3 = test system: OVCAR-3
OVCAR-4 = test system: OVCAR-4
OVCAR-5 = test system: OVCAR-5
OVCAR-8 = test system: OVCAR-8
PC-3 = test system: PC-3
RPMI-8226 = test system: RPMI-8226
RXF 393 = test system: RXF 393
SF-268 = test system: SF-268
SF-295 = test system: SF-295
SF-539 = test system: SF-539
SK-MEL-2 = test system: SK-MEL-2
SK-MEL-5 = test system: SK-MEL-5
SK-OV-3 = test system: SK-OV-3
SN12C = test system: SN12C
SNB-19 = test system: SNB-19
SNB-75 = test system: SNB-75
SR = test system: SR
TK-10 = test system: TK-10
U-251 = test system: U-251
UACC-257 = test system: UACC-257
UACC-62 = test system: UACC-62
UO-31 = test system: UO-31
786-0 = test system: 786-0
CCRF-CEM = test system: CCRF-CEM
NCI-H460 = test system: NCI-H460
NCI-H522 = test system: NCI-H522
SK-MEL-28 = test system: SK-MEL-28
SW-620 = test system: SW-620
HL-60 = test system: HL-60
T47D = test system: T47D

CCn1cc(C(c2ccc(Cl)cc2)n2ccnc2)c2cc(Br)ccc21 (configuration not stated)
GI50 (A498): 13.4 µM (inactive)
GI50 (A549): 10.4 µM (inactive)
GI50 (ACHN): 12.8 µM (inactive)
GI50 (BT-549): 14.8 µM (inactive)
GI50 (CAKI-1): 13.7 µM (inactive)
GI50 (COLO 205): 11.6 µM (inactive)
GI50 (DU-145): 16.6 µM (inactive)
GI50 (EKVX): > 100 µM (inactive)
GI50 (HCC 2998): 13.2 µM (inactive)
GI50 (HCT-116): 16.1 µM (inactive)
GI50 (HCT-15): 12.2 µM
GI50 (HOP-62): 14.4 µM (inactive)
GI50 (HOP-92): 4.89 µM (inactive)
GI50 (HT-29): 7.55 µM (inactive)
GI50 (Hs-578T): 18.7 µM (inactive)
GI50 (IGROV-1): 9.31 µM (inactive)
GI50 (K562): 4.85 µM (inactive)
GI50 (KM12): 11.4 µM (inactive)
GI50 (LOX IMVI): 12.9 µM (inactive)
GI50 (M14): 13.3 µM (inactive)
GI50 (MCF7): 10.1 µM (inactive)
GI50 (MDA-MB-231): 14.8 µM (inactive)
GI50 (MDA-MB-435): 13.6 µM (inactive)
GI50 (MDA-N): 20.1 µM (inactive)
GI50 (MOLT-4): 1.85 µM (inactive)
GI50 (Malme-3M): 17.7 µM (inactive)
GI50 (NCI-H226): 22.1 µM (inactive)
GI50 (NCI-H23): 14.5 µM (inactive)
GI50 (NCI/ADR-RES): 12.6 µM (inactive)
GI50 (OVCAR-3): 10.3 µM (inactive)
GI50 (OVCAR-4): 9.64 µM (inactive)
GI50 (OVCAR-5): 11.7 µM (inactive)
GI50 (OVCAR-8): 10.8 µM (inactive)
GI50 (PC-3): 9.55 µM (inactive)
GI50 (RPMI-8226): 3.48 µM (inactive)
GI50 (RXF 393): 14.8 µM (inactive)
GI50 (SF-268): 11.2 µM (inactive)
GI50 (SF-295): 10.8 µM (inactive)
GI50 (SF-539): 18.7 µM (inactive)
GI50 (SK-MEL-2): 17 µM (inactive)
GI50 (SK-MEL-5): 15.7 µM (inactive)
GI50 (SK-OV-3): 17.7 µM (inactive)
GI50 (SN12C): 22.8 µM (inactive)
GI50 (SNB-19): 14.3 µM (inactive)
GI50 (SNB-75): 13.6 µM (inactive)
GI50 (SR): 4.35 µM (inactive)
GI50 (TK-10): 16.1 µM (inactive)
GI50 (U-251): 14.7 µM (inactive)
GI50 (UACC-257): 14.1 µM (inactive)
GI50 (UACC-62): 10.9 µM (inactive)
GI50 (UO-31): 6.9 µM (inactive)

O=C1c2cc3ncsc3cc2C(=O)c2c(O)ccc(O)c21
GI50 (786-0): > 100 µM (inactive)
GI50 (A498): > 100 µM (inactive)
GI50 (A549): > 100 µM (inactive)
GI50 (ACHN): > 100 µM (inactive)
GI50 (BT-549): > 100 µM (inactive)
GI50 (CAKI-1): > 100 µM (inactive)
GI50 (CCRF-CEM): 98.9 µM (inactive)
GI50 (COLO 205): > 100 µM (inactive)
GI50 (DU-145): > 100 µM (inactive)
GI50 (EKVX): > 100 µM (inactive)
GI50 (HCC 2998): > 100 µM (inactive)
GI50 (HCT-116): > 100 µM (inactive)
GI50 (HCT-15): > 100 µM
GI50 (HOP-62): > 100 µM (inactive)
GI50 (HOP-92): > 100 µM (inactive)
GI50 (HT-29): > 100 µM (inactive)
GI50 (Hs-578T): > 100 µM (inactive)
GI50 (IGROV-1): > 100 µM (inactive)
GI50 (K562): > 100 µM (inactive)
GI50 (KM12): > 100 µM (inactive)
GI50 (LOX IMVI): > 100 µM (inactive)
GI50 (M14): > 100 µM (inactive)
GI50 (MCF7): > 100 µM (inactive)
GI50 (MDA-MB-231): > 100 µM (inactive)
GI50 (MDA-MB-435): > 100 µM (inactive)
GI50 (MDA-N): > 100 µM (inactive)
GI50 (MOLT-4): > 100 µM (inactive)
GI50 (Malme-3M): > 100 µM (inactive)
GI50 (NCI-H226): > 100 µM (inactive)
GI50 (NCI-H23): > 100 µM (inactive)
GI50 (NCI-H460): > 100 µM (inactive)
GI50 (NCI-H522): > 100 µM (inactive)
GI50 (NCI/ADR-RES): > 100 µM (inactive)
GI50 (OVCAR-3): > 100 µM (inactive)
GI50 (OVCAR-4): > 100 µM (inactive)
GI50 (OVCAR-5): > 100 µM (inactive)
GI50 (OVCAR-8): > 100 µM (inactive)
GI50 (PC-3): > 100 µM (inactive)
GI50 (RPMI-8226): > 100 µM (inactive)
GI50 (RXF 393): > 100 µM (inactive)
GI50 (SF-268): > 100 µM (inactive)
GI50 (SF-295): > 100 µM (inactive)
GI50 (SF-539): > 100 µM (inactive)
GI50 (SK-MEL-28): > 100 µM (inactive)
GI50 (SK-MEL-2): > 100 µM (inactive)
GI50 (SK-MEL-5): > 100 µM (inactive)
GI50 (SN12C): > 100 µM (inactive)
GI50 (SNB-19): > 100 µM (inactive)
GI50 (SNB-75): > 100 µM (inactive)
GI50 (SR): > 100 µM (inactive)
GI50 (SW-620): > 100 µM (inactive)
GI50 (TK-10): > 100 µM (inactive)
GI50 (U-251): > 100 µM (inactive)
GI50 (UACC-257): > 100 µM (inactive)
GI50 (UACC-62): > 100 µM (inactive)
GI50 (UO-31): > 100 µM (inactive)

C=CCN1CN(c2ccccc2)C2(CCN(CCCC3(c4ccc(F)cc4)OCCO3)CC2)C1=O
GI50 (786-0): 17.7 µM (inactive)
GI50 (A549): 21.2 µM (inactive)
GI50 (ACHN): 18.7 µM (inactive)
GI50 (CAKI-1): 26.7 µM (inactive)
GI50 (CCRF-CEM): 13.3 µM (inactive)
GI50 (COLO 205): 15.3 µM (inactive)
GI50 (DU-145): 22.4 µM (inactive)
GI50 (EKVX): 15.1 µM (inactive)
GI50 (HCC 2998): 19.7 µM (inactive)
GI50 (HCT-116): 14.8 µM (inactive)
GI50 (HCT-15): 12.5 µM
GI50 (HL-60): 13.7 µM (inactive)
GI50 (HOP-62): 21.1 µM (inactive)
GI50 (HT-29): 5.61 µM (inactive)
GI50 (IGROV-1): 19.9 µM (inactive)
GI50 (K562): 12.8 µM (inactive)
GI50 (KM12): 15.8 µM (inactive)
GI50 (LOX IMVI): 18.5 µM (inactive)
GI50 (M14): 15.5 µM (inactive)
GI50 (MCF7): 14.7 µM (inactive)
GI50 (MDA-MB-231): 18.3 µM (inactive)
GI50 (MOLT-4): 11 µM (inactive)
GI50 (Malme-3M): 16.5 µM (inactive)
GI50 (NCI-H226): 19.5 µM (inactive)
GI50 (NCI-H23): 13.5 µM (inactive)
GI50 (NCI-H522): 18.9 µM (inactive)
GI50 (NCI/ADR-RES): 14.4 µM (inactive)
GI50 (OVCAR-3): 14.4 µM (inactive)
GI50 (OVCAR-5): 11.3 µM (inactive)
GI50 (OVCAR-8): 16.1 µM (inactive)
GI50 (PC-3): 16.2 µM (inactive)
GI50 (RPMI-8226): 12.4 µM (inactive)
GI50 (RXF 393): 14.8 µM (inactive)
GI50 (SF-268): 18.7 µM (inactive)
GI50 (SF-295): 18.5 µM (inactive)
GI50 (SF-539): 10.9 µM (inactive)
GI50 (SK-MEL-28): 16.9 µM (inactive)
GI50 (SK-MEL-5): 15.1 µM (inactive)
GI50 (SK-OV-3): 19.6 µM (inactive)
GI50 (SN12C): 17.7 µM (inactive)
GI50 (SNB-19): 19.5 µM (inactive)
GI50 (SNB-75): 15.3 µM (inactive)
GI50 (SR): 12.1 µM (inactive)
GI50 (SW-620): 18.7 µM (inactive)
GI50 (T47D): 11.6 µM (inactive)
GI50 (TK-10): 16.9 µM (inactive)
GI50 (U-251): 15.3 µM (inactive)
GI50 (UACC-257): 18.3 µM (inactive)
GI50 (UACC-62): 18.7 µM (inactive)
GI50 (UO-31): 9.93 µM (inactive)

NC(N)=NCCC(O)(P(=O)(O)O)P(=O)(O)O
GI50 (786-0): 46.9 µM (inactive)
GI50 (A549): > 100 µM (inactive)
GI50 (ACHN): > 100 µM (inactive)
GI50 (BT-549): > 100 µM (inactive)
GI50 (CAKI-1): > 100 µM (inactive)
GI50 (COLO 205): > 100 µM (inactive)
GI50 (DU-145): > 100 µM (inactive)
GI50 (EKVX): > 100 µM (inactive)
GI50 (HCC 2998): > 100 µM (inactive)
GI50 (HCT-116): > 100 µM (inactive)
GI50 (HCT-15): > 100 µM
GI50 (HOP-62): > 100 µM (inactive)
GI50 (Hs-578T): 15 µM (inactive)
GI50 (IGROV-1): > 100 µM (inactive)
GI50 (KM12): > 100 µM (inactive)
GI50 (LOX IMVI): > 100 µM (inactive)
GI50 (M14): > 100 µM (inactive)
GI50 (MCF7): > 100 µM (inactive)
GI50 (MDA-MB-231): > 100 µM (inactive)
GI50 (MDA-N): > 100 µM (inactive)
GI50 (Malme-3M): > 100 µM (inactive)
GI50 (NCI-H226): > 100 µM (inactive)
GI50 (NCI-H23): > 100 µM (inactive)
GI50 (NCI-H460): > 100 µM (inactive)
GI50 (NCI-H522): > 100 µM (inactive)
GI50 (NCI/ADR-RES): > 100 µM (inactive)
GI50 (OVCAR-3): > 100 µM (inactive)
GI50 (OVCAR-5): > 100 µM (inactive)
GI50 (PC-3): > 100 µM (inactive)
GI50 (RXF 393): > 100 µM (inactive)
GI50 (SF-268): > 100 µM (inactive)
GI50 (SF-295): > 100 µM (inactive)
GI50 (SF-539): > 100 µM (inactive)
GI50 (SK-MEL-5): > 100 µM (inactive)
GI50 (SK-OV-3): > 100 µM (inactive)
GI50 (SNB-19): > 100 µM (inactive)
GI50 (TK-10): > 100 µM (inactive)
GI50 (UACC-257): > 100 µM (inactive)
GI50 (UACC-62): > 100 µM (inactive)
GI50 (UO-31): > 100 µM (inactive)
